Source: patent US20230278972A1, “SUBSTITUTED HALOALKYL SULFONANILIDE HERBICIDES” (FMC Corporation, priority 2020, published 2023)

How the values were obtained:
Assay type in all cases: in vivo
[1] = system: Ryegrass, Italian (Italian ryegrass, Lolium multiflorum); experiment: Test A postemergence, Ryegrass, Italian; conditions: Postemergence, 0 to 100 scale (0 no effect, 100 complete control)
Method in brief: (§1)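 Whole-plant herbicidal screen in pots of loam blended with sand. Sprays used a surfactant-containing, non-phytotoxic solvent vehicle. Timing was preemergence soil-directed at planting or postemergence at the one- to two-leaf stage (2–10 cm).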

[2] = system: pigweed (Amaranthus retroflexus); experiment: Test A preemergence, pigweed; conditions: for Plant response rating, Pigweed: 0 to 100 scale (0 no effect, 100 complete control); for Pigweed plant response rating: 500 g ai/ha, visual injury on 0 to 100 scale (0 no effect, 100 complete control), approximately 10 days
Method in brief: (§2)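 Preemergence: seeded pots of loam plus sand received a directed soil spray. Postemergence: seedlings at one to two leaves, 2 to 10 cm high, were oversprayed. Each compound was formulated in a non-phytotoxic solvent mix that included a surfactant.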

[3] = system: ragweed (common ragweed, Ambrosia artemisiifolia); experiment: Test A postemergence, ragweed; conditions: Postemergence, 0 to 100 scale (0 no effect, 100 complete control)
Method in brief: as §1

[4] = system: ragweed (common ragweed, Ambrosia artemisiifolia); experiment: Test A preemergence, ragweed; conditions: Preemergence; for Plant response rating, Ragweed: 0 to 100 scale (0 no effect, 100 complete control); for Ragweed plant response rating: 500 g ai/ha, visual injury on 0 to 100 scale (0 no effect, 100 complete control), approximately 10 days
Method in brief: as §1

[5] = system: pigweed (Amaranthus retroflexus); experiment: Test A postemergence, pigweed; conditions: Postemergence, 0 to 100 scale (0 no effect, 100 complete control)
Method in brief: as §1

[6] = system: galium (catchweed bedstraw, Galium aparine); experiment: Test A postemergence, galium; conditions: Postemergence, 0 to 100 scale (0 no effect, 100 complete control)
Method in brief: as §2

corn (Zea mays) = experiment: Test A postemergence, corn; conditions: Postemergence, 0 to 100 scale (0 no effect, 100 complete control)
Method in brief: as §1

[7] = system: Ryegrass, Italian (Italian ryegrass, Lolium multiflorum); experiment: Test A preemergence, Ryegrass, Italian; conditions: Preemergence; for Plant response rating, Ryegrass, Italian: 0 to 100 scale (0 no effect, 100 complete control); for Ryegrass, Italian plant response rating: 500 g ai/ha, visual injury on 0 to 100 scale (0 no effect, 100 complete control), approximately 10 days
Method in brief: as §1

[8] = system: Foxtail, Giant (giant foxtail, Setaria faberi); experiment: Test A preemergence, Foxtail, Giant; conditions: Preemergence; for Plant response rating, Foxtail, Giant: 0 to 100 scale (0 no effect, 100 complete control); for Foxtail, Giant plant response rating: 500 g ai/ha, visual injury on 0 to 100 scale (0 no effect, 100 complete control), approximately 10 days
Method in brief: as §1

[9] = system: blackgrass (Alopecurus myosuroides); experiment: Test A postemergence, blackgrass; conditions: Postemergence, 0 to 100 scale (0 no effect, 100 complete control)
Method in brief: as §1

kochia (Bassia scoparia) [10] = experiment: Test A postemergence, kochia; conditions: Postemergence, 0 to 100 scale (0 no effect, 100 complete control)
Method in brief: as §1

[11] = system: barnyardgrass (Echinochloa crus-galli); experiment: Test A postemergence, barnyardgrass; conditions: Postemergence, 0 to 100 scale (0 no effect, 100 complete control)
Method in brief: as §2

[12] = system: Foxtail, Giant (giant foxtail, Setaria faberi); experiment: Test A postemergence, Foxtail, Giant; conditions: Postemergence, 0 to 100 scale (0 no effect, 100 complete control)
Method in brief: as §1

[13] = system: wheat (Triticum aestivum); experiment: Test A postemergence, wheat; conditions: Postemergence, 0 to 100 scale (0 no effect, 100 complete control)
Method in brief: as §2

[14] = system: barnyardgrass (Echinochloa crus-galli); experiment: Test A preemergence, barnyardgrass; conditions: Preemergence; for Plant response rating, Barnyardgrass: 0 to 100 scale (0 no effect, 100 complete control); for Barnyardgrass plant response rating: 500 g ai/ha, visual injury on 0 to 100 scale (0 no effect, 100 complete control), approximately 10 days
Method in brief: as §1

kochia (Bassia scoparia) [15] = experiment: Test A preemergence, kochia; conditions: Preemergence; for Plant response rating, Kochia: 0 to 100 scale (0 no effect, 100 complete control); for Kochia plant response rating: 500 g ai/ha, visual injury on 0 to 100 scale (0 no effect, 100 complete control), approximately 10 days
Method in brief: as §1

[16] = 1000 g ai/ha, visual injury, approx. 10 days
[17] = 500 g ai/ha, visual injury approx. 10 days
[18] = 125 g ai/ha, visual injury, approx. 10 days

Row | Structure (SMILES) | Plant response rating, Ryegrass, Italian ([1]; 125 g ai/ha) | Plant response rating, Ryegrass, Italian [1, 17] | Plant response rating, Pigweed [2, 18] | Pigweed plant response rating [2] | Plant response rating, Ragweed ([3]; 125 g ai/ha) | Plant response rating, Ragweed [3, 17] | Plant response rating, Ragweed [4, 18] | Ragweed plant response rating [4] | Plant response rating, Pigweed ([5]; 125 g ai/ha) | Plant response rating, Pigweed [5, 17] | Plant response rating, Galium ([6]; 125 g ai/ha) | Plant response rating, Galium [6, 17] | Plant response rating, Corn (corn (Zea mays); 125 g ai/ha) | Plant response rating, Corn (corn (Zea mays); [17]) | Plant response rating, Ryegrass, Italian [7, 18] | Ryegrass, Italian plant response rating [7] | Plant response rating, Foxtail, Giant [8, 18] | Foxtail, Giant plant response rating [8] | Plant response rating, Blackgrass ([9]; 125 g ai/ha) | Plant response rating, Blackgrass [9, 17] | further results
1 | Cc1cc(C)c(C(=O)N2CCC(C)CC2)cc1NS(=O)(=O)C(F)(F)F [Compound 264] | – | – | – | – | – | – | – | – | – | – | – | – | – | – | – | – | – | – | – | – | Plant response rating, Ryegrass, Italian [1, 16]: 50; Plant response rating, Pigweed ([2]; 1000 g ai/ha): 80; Plant response rating, Ragweed [3, 16]: 60; Plant response rating, Ragweed ([4]; 1000 g ai/ha): 90; Plant response rating, Pigweed [5, 16]: 60; Plant response rating, Galium [6, 16]: 70; Plant response rating, Corn (corn (Zea mays); [16]): 20; Plant response rating, Ryegrass, Italian ([7]; 1000 g ai/ha): 100; Plant response rating, Foxtail, Giant ([8]; 1000 g ai/ha): 100; Plant response rating, Blackgrass [9, 16]: 60; Plant response rating, Kochia (kochia (Bassia scoparia) [10]; [16]): 20; Plant response rating, Barnyardgrass [11, 16]: 50; Plant response rating, Foxtail, Giant [12, 16]: 40; Plant response rating, Wheat [13, 16]: 70; Plant response rating, Barnyardgrass ([14]; 1000 g ai/ha): 100; Plant response rating, Kochia (kochia (Bassia scoparia) [15]; 1000 g ai/ha): 70
2 | Cc1cc(C)c(N2CCC3(CCCC3)C2=O)cc1NS(=O)(=O)C(F)(F)F [Compound 270] | 0 | 70 | 70 | 100 | 30 | 60 | 0 | 80 | 60 | 90 | 80 | 90 | 0 | 50 | 100 | 100 | 100 | 100 | 20 | 70 | Plant response rating, Kochia (kochia (Bassia scoparia) [10]; 125 g ai/ha): 10; Plant response rating, Kochia (kochia (Bassia scoparia) [10]; [17]): 50; Plant response rating, Barnyardgrass ([11]; 125 g ai/ha): 0; Plant response rating, Barnyardgrass [11, 17]: 70; Plant response rating, Foxtail, Giant ([12]; 125 g ai/ha): 0; Plant response rating, Foxtail, Giant [12, 17]: 20; Plant response rating, Wheat ([13]; 125 g ai/ha): 40; Plant response rating, Wheat [13, 17]: 70; Plant response rating, Barnyardgrass [14, 18]: 90; Barnyardgrass plant response rating [14]: 90; Plant response rating, Kochia (kochia (Bassia scoparia) [15]; [18]): 0; Kochia plant response rating (kochia (Bassia scoparia) [15]): 0
3 | Cc1cc(C)c(N(S(=O)(=O)C(F)(F)F)S(=O)(=O)C(F)(F)F)cc1C(=O)N1CCCOCC1 [Compound 276] | 0 | 10 | 80 | 100 | 50 | 80 | 40 | 70 | 60 | 80 | 80 | 90 | 0 | 20 | 30 | 80 | 100 | 100 | 0 | 0 | Plant response rating, Kochia (kochia (Bassia scoparia) [10]; 125 g ai/ha): 20; Plant response rating, Kochia (kochia (Bassia scoparia) [10]; [17]): 60; Plant response rating, Barnyardgrass ([11]; 125 g ai/ha): 60; Plant response rating, Barnyardgrass [11, 17]: 90; Plant response rating, Foxtail, Giant ([12]; 125 g ai/ha): 10; Plant response rating, Foxtail, Giant [12, 17]: 90; Plant response rating, Wheat ([13]; 125 g ai/ha): 0; Plant response rating, Wheat [13, 17]: 20; Plant response rating, Barnyardgrass [14, 18]: 70; Barnyardgrass plant response rating [14]: 100; Plant response rating, Kochia (kochia (Bassia scoparia) [15]; [18]): 0; Kochia plant response rating (kochia (Bassia scoparia) [15]): 0
4 | Cc1cc(C)c(C2=NOC3(CCCCCC3)C2)cc1NS(=O)(=O)C(F)(F)F [Compound 277] | 0 | 60 | 60 | 100 | 20 | 60 | 10 | 80 | 30 | 70 | 100 | 100 | 10 | 70 | 100 | 100 | 100 | 100 | 10 | 60 | Plant response rating, Kochia (kochia (Bassia scoparia) [10]; 125 g ai/ha): 10; Plant response rating, Kochia (kochia (Bassia scoparia) [10]; [17]): 40; Plant response rating, Barnyardgrass ([11]; 125 g ai/ha): 20; Plant response rating, Barnyardgrass [11, 17]: 90; Plant response rating, Foxtail, Giant ([12]; 125 g ai/ha): 30; Plant response rating, Foxtail, Giant [12, 17]: 90; Plant response rating, Wheat ([13]; 125 g ai/ha): 0; Plant response rating, Wheat [13, 17]: 70; Plant response rating, Barnyardgrass [14, 18]: 100; Barnyardgrass plant response rating [14]: 100; Plant response rating, Kochia (kochia (Bassia scoparia) [15]; [18]): 90; Kochia plant response rating (kochia (Bassia scoparia) [15]): 100
5 | Cc1cc(C)c(N2CC3(CCCCC3)OC2=O)cc1NS(=O)(=O)C(F)(F)F [Compound 279] | 0 | 60 | 90 | 100 | 80 | 90 | 100 | 100 | 50 | 80 | 90 | 90 | 20 | 20 | 90 | 100 | 100 | 100 | 0 | 20 | Plant response rating, Kochia (kochia (Bassia scoparia) [10]; 125 g ai/ha): 40; Plant response rating, Kochia (kochia (Bassia scoparia) [10]; [17]): 50; Plant response rating, Barnyardgrass ([11]; 125 g ai/ha): 20; Plant response rating, Barnyardgrass [11, 17]: 80; Plant response rating, Foxtail, Giant ([12]; 125 g ai/ha): 10; Plant response rating, Foxtail, Giant [12, 17]: 30; Plant response rating, Wheat ([13]; 125 g ai/ha): 0; Plant response rating, Wheat [13, 17]: 70; Plant response rating, Barnyardgrass [14, 18]: 100; Barnyardgrass plant response rating [14]: 100; Plant response rating, Kochia (kochia (Bassia scoparia) [15]; [18]): 80; Kochia plant response rating (kochia (Bassia scoparia) [15]): 90
